Results on 16 compounds are retold here after US5202339A, “Hydantoin derivatives” (Mochida Pharmaceutical Co., Ltd., priority 1987, dated 1993).

In series [1] the target is T1, rat lens aldose reductase (Rattus norvegicus, UniProt P07943).
T1 construct: rat lens aldose reductase; from tissue; host or cells: rat lens
Kind of series: inhibitory activity on rat lens aldose reductase (Experimental Example 1). It is filed as biochemical. As to conditions: for IC50: pH 6.2, 10 mM DL-glyceraldehyde, 0.16 mM NADPH; for potency relative to reference compound A: ratio in words. Here is the method:
The inhibitory activities of hydantoin derivatives on rat lens aldose reductase were measured according to the procedure of Inagaki et al. (K. Inagaki et al., Arch. Biochem. Biophys., 216, 337 (1982)) with slight modifications. Assays were performed in 0.1M phosphate buffer (pH 6.2) containing 0.4M ammonium sulfate, 10 mM DL-glyceraldehyde, 0.16 mM nicotinamide adenine dinucleotide phosphate, reduced form (NADPH) and aldose reductase (0.010-0.016 units) in a total volume of 1.0 ml. To this mixture was added 10 μl of the solution of each hydantoin derivative to be tested, and the decrease in absorbance at 340 nm was measured with a spectrophotometer.
The concentrations of typical hydantoin derivatives of the present invention required to produce 50% inhibition are shown in table 1.

Series [2] relates to Streptozotocin-Diabetic Rats. Description: Hypoglycemic Effects in Streptozotocin-Diabetic Rats (Experimental Example 4). The series is classed as in vivo, rat (male Wistar). As to conditions: STZ-diabetic rats, 100 mg/kg oral; for inhibition in vivo at 100 mg/kg: Rattus norvegicus, 6 hrs after administration, read-out: Lowering rate of serum glucose (%). Here is the method:
(§1) Diabetic rats were produced according to the method of Junod et al. (A. Junod et al., J. Clin. Invest., 48, 2129 (1969)). Briefly, male Wistar rats were given 26.5 mg/kg of streptozotocin (STZ) intravenously. Four days later, the rats with serum glucose levels of between 400 and 500 mg/dl were used. After being fasted for 4 hrs, groups of 5 diabetic rats were orally administered with the compounds of the present invention or gliclazide in a dose of 100 mg/kg. Blood sample were collected from the orbital vein before and 6 hrs after the administration. Serum glucose levels were determined by the enzymatic method with an autoanalyzer (Cobas Fara®, Roche).

In another series the test system is ICR strain mice. Kind of series: acute toxicity in mice (Experimental Example 3). The series is classed as in vivo. The following applies: 1 g/kg, oral, groups of 5 ICR mice. From the text:
Hydantoin derivatives of the present invention were examined for acute toxicity.

The target in series [3] is T2, bovine lens aldose reductase (Bos taurus, UniProt P16116).
T2 construct: bovine lens aldose reductase preparation was used; from tissue; host or cells: bovine lens
Description: inhibitory activity on bovine lens aldose reductase (Experimental Example 2). It is filed as biochemical. The following applies: for IC50: pH 6.2, 10 mM DL-glyceraldehyde, 0.16 mM NADPH. Here is the method:
Assays were performed in 0.1M phosphate buffer (pH 6.2) containing 0.4M ammonium sulfate, 10 mM DL-glyceraldehyde, 0.16 mM nicotinamide adenine dinucleotide phosphate, reduced form (NADPH) and aldose reductase (0.010-0.016 units) in a total volume of 1.0 ml. To this mixture was added 10 μl of the solution of each hydantoin derivative to be tested, and the decrease in absorbance at 340 nm was measured with a spectrophotometer.

In series [4] the test system is Streptozotocin-Diabetic Rats. Kind of series: Ketone Body Lowering Effects in Streptozotocin-Diabetic Rats (Experimental Example 5). It is filed as in vivo, rat (male Wistar). As to conditions: STZ-diabetic rats, oral for 2 weeks. Here is the method:
as §1
(§2) Diabetic rats were produced according to the method described previously. Groups of 5 diabetic rats were orally administered with compound 38 or 47 of the present invention for 2 weeks. The rats were deprived of food 4 hrs before the last administration, and 6 hrs after the last administration, blood samples were collected from the orbital vein. Serum total ketone body (KB) levels were determined by the enzymatic method with an autoanalyzer (Cobas Fara®, Roche). In this experiment, serum total ketone body levels in streptozotocin-diabetic rats increased by 92 % of normal rats in the mean value.

The test system of the next series is Normal Rats. Description: Hypoglycemic Effects in Normal Rats (Experimental Example 6). The series is classed as in vivo, rat (male Wistar). As to conditions: normal animals. Here is the method:
Groups of 5 male Wistar rats, after being fasted for 4 hrs, where orally administered with compound 38 or 47 of the present invention or gliclazide. Blood samples were collected from the orbital vein before, 1 hr and 6 hrs after the administration. Serum glucose levels were determined by the enzymatic method with an autoanalyzer (Cobas Fara®, Roche).

For series [5], the system named is Streptozotocin-Diabetic Rats. Description: Hypolipidemic Effects in Streptozotocin-Diabetic Rats (Experimental Example 7). The series is classed as in vivo, rat (male Wistar). The following applies: STZ-diabetic rats, 100 mg/kg oral for 2 weeks. Here is the method:
as §1
as §2, with “invention at a dose of 100 mg/kg” for “invention”, “triglyceride (TG), non-esterified fatty acid (NEFA) and cholesterol (CHOL)” for “total ketone body (KB)”, “experiment, each parameters of” for “experiment,”, “lipids” for “total ketone body levels”, “40” for “92”

“Also recorded” adds a separate entry of the source.

For the compound `O=C1CN(S(=O)(=O)c2ccc3ccccc3c2Cl)C(=O)N1` [Compound 1, 1-(1-chloronaphthalen-2-ylsulfonyl)hydantoin], the IC50 in series [1] turned out to be 290 nM. In series [2], the inhibition in vivo at 100 mg/kg turned out to be 37.2%.
In turn, `O=C1CN(S(=O)(=O)c2ccc3c(Cl)cccc3c2)C(=O)N1` [Compound 3, 1-(5-chloronaphthalen-2-ylsulfonyl)hydantoin] had a 50% inhibitory concentration (IC50) in series [1] of 190 nM. Further, the inhibition in vivo at 100 mg/kg in series [2] is 19%.
On to `O=C1CN(S(=O)(=O)c2cc3ccc(Cl)cc3cc2Cl)C(=O)N1` [Compound 7, 1-(3,6-dichloronaphthalen-2-ylsulfonyl)hydantoin], for which the midpoint of inhibition in series [1], the IC50, lay at 240 nM. The “acute toxicity: change observed over the one-week period after administration” value (from here on “acute toxicity: change observed”) in the series with ICR strain mice is “no change was observed”. For the same compound, in series [2], the inhibition in vivo at 100 mg/kg came to 23.2%.
Turning to `O=C1CN(S(=O)(=O)c2cc3ccccc3cc2Br)C(=O)N1` [Compound 9, 1-(3-bromonaphthalen-2-ylsulfonyl)hydantoin], the IC50 in series [1] stood at 350 nM. Besides, in series [2], the inhibition in vivo at 100 mg/kg stood at 17.4%.
Consider `Cc1ccc2cc(S(=O)(=O)N3CC(=O)NC3=O)ccc2c1[N+](=O)[O-]` [Compound 13, 1-(6-methyl-5-nitronaphthalen-2-yl-sulfonyl)hydantoin], for which, in series [1], it took 27 nM to reach half-maximal inhibition (IC50) and the “potency relative to reference compound A” value is listed as “ten times or more potent”. Further, in series [3] (in words), the “inhibitory activity against aldose reductase compared with reference compound B” value is “stronger inhibitory activities against aldose reductase”. Besides, the 50% inhibitory concentration (IC50) in series [3] is 100 nM.
`COc1ccc2cc(S(=O)(=O)N3CC(=O)NC3=O)ccc2c1[N+](=O)[O-]` [Compound 15, 1-(6-methoxy-5-nitronaphthalen-2-yl-sulfonyl)hydantoin]: the IC50 amounted to 38 nM in series [1] and 230 nM in series [3]. Also, the “potency relative to reference compound A” value in series [1] is “ten times or more potent”. In addition, the “inhibitory activity against aldose reductase compared with reference compound B” value in series [3] (in words) is given as “stronger inhibitory activities against aldose reductase”.
Take `O=C1CN(S(=O)(=O)c2cc3ccccc3o2)C(=O)N1` [Compound 19, 1-(benzo[b]furan-2-ylsulfonyl)hydantoin]: the “acute toxicity: change observed” value with ICR strain mice was “no change was observed”. The inhibition in vivo at 100 mg/kg in series [2] turned out to be 52.1%.
Turning to `O=C1CN(S(=O)(=O)c2cc3cc(Cl)ccc3o2)C(=O)N1` [Compound 20, 1-(5-chlorobenzo[b]furan-2-ylsulfonyl)hydantoin], the IC50 in series [3] came to 360 nM. For the same compound, the “acute toxicity: change observed” value in the series on ICR strain mice was “no change was observed”. Besides, the inhibition in vivo at 100 mg/kg in series [2] worked out at 12.8%.
`O=C1CN(S(=O)(=O)c2cc3cc(Br)ccc3o2)C(=O)N1` [Compound 21, 1-(5-bromobenzo[b]furan-2-ylsulfonyl)hydantoin] registered an IC50 in series [3] of 300 nM. Moreover, in the series with ICR strain mice, the “acute toxicity: change observed” value was “no change was observed”. Moreover, the inhibition in vivo at 100 mg/kg in series [2] is 22.3%.
Regarding `O=C1CN(S(=O)(=O)c2cc(Cl)sc2Cl)C(=O)N1` [Compound 24, 1-(2,5-dichlorothiophen-3-ylsulfonyl)hydantoin], in series [3] (in words), the “potency compared with compound 13 and 15” value was “as potent as compound 13 and 15”. The same compound showed an IC50 in series [3] of 290 nM. The “acute toxicity: change observed” value in the series on ICR strain mice is “no change was observed”.
`O=C1CN(S(=O)(=O)c2oc3ccccc3c2Br)C(=O)N1` [Compound 38, 1-(3-bromobenzo[b]furan-2-ylsulfonyl)hydantoin]: in series [3], the IC50 was found to be 160 nM. Further, the “acute toxicity: change observed” value with ICR strain mice is “no change was observed”. Besides, the inhibition in vivo at 100 mg/kg in series [2] was 33.5%. Also, the “lowering of serum total ketone body levels (in words)” value in series [4] was “lowering activity of serum total ketone body levels”. Moreover, the “influence on serum glucose level of normal rats (in words)” value (from here on “influence on serum glucose level”) with Normal Rats was “lesser influences on serum glucose level of normal rats”. The “lowering of serum lipid levels (in words)” value in series [5] was “lowering activities of serum triglyceride, non esterified fatty acid and cholesterol levels”.
With `O=C1CN(S(=O)(=O)c2cc3c(Cl)cccc3s2)C(=O)N1` [Compound 40, 1-(4-chlorobenzo[b]thiophen-2-yl-sulfonyl)hydantoin], the midpoint of inhibition in series [3], the IC50, lay at 170 nM. In the series with ICR strain mice, the “acute toxicity: change observed” value is on record as “no change was observed”. For the same compound, the inhibition in vivo at 100 mg/kg in series [2] amounted to 11%.
As for `O=C1CN(S(=O)(=O)c2cc3c(Cl)c(Cl)ccc3o2)C(=O)N1` [Compound 44, 1-(4,5-dichlorobenzo[b]furan-2-yl-sulfonyl)hydantoin], in series [3], the midpoint of inhibition, the IC50, lay at 61 nM. Also, the “acute toxicity: change observed” value in the series on ICR strain mice was “no change was observed”. For the same compound, in series [2], the inhibition in vivo at 100 mg/kg was 21.1%.
On to `O=C1CN(S(=O)(=O)c2cc3cc(Cl)c(Cl)cc3o2)C(=O)N1` [Compound 45, 1-(5,6-dichlorobenzo[b]furan-2-yl-sulfonyl)hydantoin], for which inhibition in series [3] was half-maximal at 83 nM (IC50). In addition, the “acute toxicity: change observed” value in the series on ICR strain mice was “no change was observed”. In series [2], the inhibition in vivo at 100 mg/kg turned out to be 28.5%.
`O=C1CN(S(=O)(=O)c2oc3ccccc3c2Cl)C(=O)N1` [Compound 47, 1-(3-chlorobenzo[b]furan-2-ylsulfonyl)hydantoin]: in series [2], the inhibition in vivo at 100 mg/kg is 44.7%. Further, the “lowering of serum total ketone body levels (in words)” value in series [4] is on record as “lowering activity of serum total ketone body levels”. In addition, in the series on Normal Rats, the “influence on serum glucose level” value is on record as “lesser influences on serum glucose level of normal rats”. For the same compound, the “lowering of serum lipid levels (in words)” value in series [5] was “lowering activities of serum triglyceride, non esterified fatty acid and cholesterol levels”.
As for `Cc1ccc(S(=O)(=O)NC(=O)NN2CC3CCCC3C2)cc1` (centres unmarked) [Compound C, gliclazide, reference compound], in series [2], the inhibition in vivo at 100 mg/kg is 11% and the “hypoglycemic activity in diabetic animals (in words)” value is listed as “less potent hypoglycemic activity than all compounds of the present invention”. Further, the “influence on serum glucose level” value in the series on Normal Rats is given as “significantly lowered serum glucose level of normal rats; also recorded: remarkable hypoglycemic activity in normal animals”.
